Legend:
ICR mice [1] = assay: 30-day repeated oral administration: urine analysis; type: in vivo; set-up: key: ↓: Decreased; →: No change; ↑: Increased; details: 30 days, vs control group
Experimental: (§1) 24R,25-(OH)₂-D₃ was dissolved in 1% ethanol containing Panacate 810 to a predetermined concentration and the resultant solution was forcibly and orally administered to 5-week-old male or female ICR mice for 30 days in succession so that the does might become to 10 µg/kg/day, 100 µg/kg/day and 1,000 µg/kg/day, respectively. The thus treated mice were compared with a group of mice to which only the solvent had been administered in the following test items.

ICR mice [2] = assay: 30-day repeated oral administration: weight of organs; type: in vivo; set-up: key: ↓: Decreased; →: No change; ↑: Increased; details: 30 days, vs control group
Experimental: as §1

ICR mice [3] = assay: 30-day repeated oral administration: pathological inspection of organs; type: in vivo; details: 10, 100 and 1,000 µg/kg/day oral, 30 days; 10% formalin, hematoxylin-eosin
Experimental: as §1
The following organs were fixed by 10% formalin, stained with hematoxylin-eosin and subjected to pathological inspection.

[4] = 30-day repeated oral administration: growth curve of measured weights; type: in vivo, ICR mice; details: 10, 100 and 1,000 µg/kg/day oral, 30 days, male or female, vs solvent group
Experimental: as §1

[5] = test system: rabbits suffering fracture; assay: Fibula fracture model: X-ray inspection; type: in vivo, Japanese white house rabbits; details: 100 µg/kg oral, 3 weeks after the bones had been broken
From the text: (§2) The right fibulae of mature house rabbits (Japanese white house rabbits having a weight of about 3 kg) were broken at the central portions under anesthetic with a dental hand drill. Each of the house rabbits was kept in a separate cage and was allowed to take an ordinary solid food (CR-1, produced by Nippon Clare Corp.) and city water freely. 24R,25-(OH)₂-D₃ and 24S,25-(OH)₂-D₃ were dispersed in an aqueous 0.5% CMC solution and orally administered to the house rabbits through a rubber catheter. The experimental groups were as follows:
(§3) The respective medicines or aqueous 0.5% CMC solution was administered to these house rabbits for 3 weeks or 6 weeks after the bones had been broken. Thereafter, the house rabbits were killed and the fibulae were taken out for X-ray inspection and a strength test (bending test by DDV-VMF produced by Toyo Baldwin Co., Ltd.).

[6] = test system: rabbits suffering fracture; assay: Fibula fracture model: strength test (bending test); type: in vivo, Japanese white house rabbits; details: 100 µg/kg oral, average value ± standard deviation
From the text: as §2, §3

- Occult blood (ICR mice [1]; female, 10 μg/kg oral): →
- Protein (ICR mice [1]; female, 10 μg/kg oral): →
- Sugar (ICR mice [1]; female, 10 μg/kg oral): →
- Urobilinogen (ICR mice [1]; female, 10 μg/kg oral): →
- pH (ICR mice [1]; female, 10 μg/kg oral): →
- Ketone body (ICR mice [1]; female, 100 μg/kg oral): →
- Occult blood (ICR mice [1]; female, 100 μg/kg oral): →
- Protein (ICR mice [1]; female, 100 μg/kg oral): →
- Sugar (ICR mice [1]; female, 100 μg/kg oral): →
- Urobilinogen (ICR mice [1]; female, 100 μg/kg oral): →
- pH (ICR mice [1]; female, 100 μg/kg oral): →
- Ketone body (ICR mice [1]; female, 1000 μg/kg oral): →
- Occult blood (ICR mice [1]; female, 1000 μg/kg oral): →
- Protein (ICR mice [1]; female, 1000 μg/kg oral): →
- Sugar (ICR mice [1]; female, 1000 μg/kg oral): →
- Urobilinogen (ICR mice [1]; female, 1000 μg/kg oral): →
- pH (ICR mice [1]; female, 1000 μg/kg oral): →
- Ketone body (ICR mice [1]; male, 10 μg/kg oral): →
- Occult blood (ICR mice [1]; male, 10 μg/kg oral): →
- Protein (ICR mice [1]; male, 10 μg/kg oral): →
- Sugar (ICR mice [1]; male, 10 μg/kg oral): →
- Urobilinogen (ICR mice [1]; male, 10 μg/kg oral): →
- pH (ICR mice [1]; male, 10 μg/kg oral): →
- Ketone body (ICR mice [1]; male, 100 μg/kg oral): →
- Occult blood (ICR mice [1]; male, 100 μg/kg oral): →
- Protein (ICR mice [1]; male, 100 μg/kg oral): →
- Sugar (ICR mice [1]; male, 100 μg/kg oral): →
- Urobilinogen (ICR mice [1]; male, 100 μg/kg oral): →
- pH (ICR mice [1]; male, 100 μg/kg oral): →
- Ketone body (ICR mice [1]; male, 1000 μg/kg oral): →
- Occult blood (ICR mice [1]; male, 1000 μg/kg oral): →
- Protein (ICR mice [1]; male, 1000 μg/kg oral): →
- Sugar (ICR mice [1]; male, 1000 μg/kg oral): →
- Urobilinogen (ICR mice [1]; male, 1000 μg/kg oral): →
- pH (ICR mice [1]; male, 1000 μg/kg oral): →
- Weight of organs: Adrenal gland (ICR mice [2]; gemale, 10 μg/kg·day oral): →
- Weight of organs: Brain (ICR mice [2]; gemale, 10 μg/kg·day oral): →
- Weight of organs: Heart (ICR mice [2]; gemale, 10 μg/kg·day oral): →
- Weight of organs: Hypo-physis (ICR mice [2]; gemale, 10 μg/kg·day oral): →
- Weight of organs: Kidney (ICR mice [2]; gemale, 10 μg/kg·day oral): →
- Weight of organs: Liver (ICR mice [2]; gemale, 10 μg/kg·day oral): →
- Weight of organs: Lung (ICR mice [2]; gemale, 10 μg/kg·day oral): →
- Weight of organs: Ovary (ICR mice [2]; gemale, 10 μg/kg·day oral): →
- Weight of organs: Spleen (ICR mice [2]; gemale, 10 μg/kg·day oral): →
- Weight of organs: Thymus (ICR mice [2]; gemale, 10 μg/kg·day oral): →
- Weight of organs: Uterus (ICR mice [2]; gemale, 10 μg/kg·day oral): →
- Weight of organs: Adrenal gland (ICR mice [2]; gemale, 100 μg/kg·day oral): →
- Weight of organs: Brain (ICR mice [2]; gemale, 100 μg/kg·day oral): →
- Weight of organs: Heart (ICR mice [2]; gemale, 100 μg/kg·day oral): →
- Weight of organs: Hypo-physis (ICR mice [2]; gemale, 100 μg/kg·day oral): →
- Weight of organs: Kidney (ICR mice [2]; gemale, 100 μg/kg·day oral): →
- Weight of organs: Liver (ICR mice [2]; gemale, 100 μg/kg·day oral): →
- Weight of organs: Lung (ICR mice [2]; gemale, 100 μg/kg·day oral): →
- Weight of organs: Ovary (ICR mice [2]; gemale, 100 μg/kg·day oral): →
- Weight of organs: Spleen (ICR mice [2]; gemale, 100 μg/kg·day oral): →
- Weight of organs: Thymus (ICR mice [2]; gemale, 100 μg/kg·day oral): →
- Weight of organs: Uterus (ICR mice [2]; gemale, 100 μg/kg·day oral): →
- Weight of organs: Adrenal gland (ICR mice [2]; gemale, 1000 μg/kg·day oral): →
- Weight of organs: Brain (ICR mice [2]; gemale, 1000 μg/kg·day oral): →
- Weight of organs: Heart (ICR mice [2]; gemale, 1000 μg/kg·day oral): →
- Weight of organs: Hypo-physis (ICR mice [2]; gemale, 1000 μg/kg·day oral): →
- Weight of organs: Kidney (ICR mice [2]; gemale, 1000 μg/kg·day oral): →
- Weight of organs: Liver (ICR mice [2]; gemale, 1000 μg/kg·day oral): →
- Weight of organs: Lung (ICR mice [2]; gemale, 1000 μg/kg·day oral): →
- Weight of organs: Ovary (ICR mice [2]; gemale, 1000 μg/kg·day oral): →
- Weight of organs: Spleen (ICR mice [2]; gemale, 1000 μg/kg·day oral): →
- Weight of organs: Thymus (ICR mice [2]; gemale, 1000 μg/kg·day oral): →
- Weight of organs: Uterus (ICR mice [2]; gemale, 1000 μg/kg·day oral): →
- Weight of organs: Adrenal gland (ICR mice [2]; male, 10 μg/kg·day oral): →
- Weight of organs: Brain (ICR mice [2]; male, 10 μg/kg·day oral): →
- Weight of organs: Heart (ICR mice [2]; male, 10 μg/kg·day oral): →
- Weight of organs: Hypo-physis (ICR mice [2]; male, 10 μg/kg·day oral): →
- Weight of organs: Kidney (ICR mice [2]; male, 10 μg/kg·day oral): →
- Weight of organs: Liver (ICR mice [2]; male, 10 μg/kg·day oral): →
- Weight of organs: Lung (ICR mice [2]; male, 10 μg/kg·day oral): →
- Weight of organs: Spleen (ICR mice [2]; male, 10 μg/kg·day oral): →
- Weight of organs: Testis (ICR mice [2]; male, 10 μg/kg·day oral): →
- Weight of organs: Thymus (ICR mice [2]; male, 10 μg/kg·day oral): →
- Weight of organs: Adrenal gland (ICR mice [2]; male, 100 μg/kg·day oral): →
- Weight of organs: Brain (ICR mice [2]; male, 100 μg/kg·day oral): →
- Weight of organs: Heart (ICR mice [2]; male, 100 μg/kg·day oral): →
- Weight of organs: Hypo-physis (ICR mice [2]; male, 100 μg/kg·day oral): →
- Weight of organs: Kidney (ICR mice [2]; male, 100 μg/kg·day oral): →
- Weight of organs: Liver (ICR mice [2]; male, 100 μg/kg·day oral): →
- Weight of organs: Lung (ICR mice [2]; male, 100 μg/kg·day oral): →
- Weight of organs: Spleen (ICR mice [2]; male, 100 μg/kg·day oral): →
- Weight of organs: Testis (ICR mice [2]; male, 100 μg/kg·day oral): →
- Weight of organs: Thymus (ICR mice [2]; male, 100 μg/kg·day oral): →
- Weight of organs: Adrenal gland (ICR mice [2]; male, 1000 μg/kg·day oral): →
- Weight of organs: Brain (ICR mice [2]; male, 1000 μg/kg·day oral): →
- Weight of organs: Heart (ICR mice [2]; male, 1000 μg/kg·day oral): →
- Weight of organs: Hypo-physis (ICR mice [2]; male, 1000 μg/kg·day oral): →
- Weight of organs: Kidney (ICR mice [2]; male, 1000 μg/kg·day oral): →
- Weight of organs: Liver (ICR mice [2]; male, 1000 μg/kg·day oral): →
- Weight of organs: Lung (ICR mice [2]; male, 1000 μg/kg·day oral): →
- Weight of organs: Spleen (ICR mice [2]; male, 1000 μg/kg·day oral): →
- Weight of organs: Testis (ICR mice [2]; male, 1000 μg/kg·day oral): →
- Weight of organs: Thymus (ICR mice [2]; male, 1000 μg/kg·day oral): →
- growth curve of the measured weights [4]: no significant difference
SMILES: C=C1CC[C@H](O)C/C1=C/C=C1\CCC[C@]2(C)[C@@H]([C@H](C)CC[C@@H](O)C(C)(C)O)CC[C@@H]12 [24R,25-(OH)₂-D₃]
- pathological inspection of organs (ICR mice [3]): No particular abnormality was observed
- X-ray inspection [5]: the cure of the fracture was accelerated
- Bending strength ([6]; 3 weeks after): 63 ± 33 N/mm
- Bending strength ([6]; 6 weeks after): 103 ± 15 N/mm

Source: patent EP0295827A2, “Use of 24,25-dihydroxy-cholecalciferol in mending bone fractures” (priority 1987, dated 1988)
